Reference: patent EP4342530A1, “SORTILIN MODULATORS” (Insusense ApS, priority 2022, dated 2024)
Several values for one entry are separate records, joined by “and”; a condition that tells them apart may be missing. Identical values can stand only once.

Key:
in vivo = details: male, CD1 (ICR), mouse
Procedure: (§4) The compound is administered to the animal in a suitable vehicle at T=0 hours. At 0.5 hours post administration plasma and separately brain are removed, prepared and analysed for total compound concentration.
(§5) Temperature: 45 °C Injection Volume: 1.5 µl for brain, 4 µl for plasma Ion Source: ESI+, SRM detection
(§6) The unbound partition coefficient (Kpuu) was determined as a ratio between the free compound concentrations in plasma and brain: Kpuu = (Cub,brain)/(Cub,plasma) [formula]
(§7) Where Cu,brain = unbound concentration in brain (C × Fub, brain); wherein • C = concentration at steady state; and • Cub,plasma = unbound concentration in plasma (C × Fub).

in vitro [1] = format: in vitro ADME; details: mouse, plasma, pH 7.4
Procedure: (§1) Plasma protein binding and brain homogenate binding for study compounds in mouse, dog, and rat by rapid equilibrium dialysis
(§2) In practice, unbound fractions in plasma and brain tissue were assessed using rapid equilibrium dialysis in vitro. Separately a pharmacokinetic study was run in vivo whereby a dose of the compound of interest was given at T=0 hours and at subsequent timepoints (eg 0.5, 1 and 4 hours) plasma and separately brain samples were analysed for total concentration of the compound of interest. These total concentrations could then be adjusted with the unbound fraction to give the unbound concentrations in the plasma and brain.
(§3) The test compounds were incubated in plasma and brain homogenate from the relevant species at 37 °C in RED device with inserts (8K MWCO, Thermo scientific) for 4 hours at 5 µM in triplicates. 350 µL of 150 mM phosphate buffered saline (PBS, pH 7.4) was used as the receiver side solutions. […] After 10-minute centrifugation at 13 200 rpm, the sample supernatants were analysed with an LC-MS/MS, to obtain the unbound fraction of the test compound (Fub). The unbound fraction was calculated from the peak area ratios obtained for each matrix: Fub = CPBS /Cplasma; [formula] where CPBS and Cplasma are the analyte concentrations in PBS (receiver) and plasma (donor), respectively. […]

[2] = Blood-brain-barrier permeability in mice after IV administration; details: 3 mg/kg intravenously, 0.5 hours after dosing
Procedure: as §4, §5, §6, §7

in vitro [3] = format: in vitro ADME; details: mouse, brain homogenate, pH 7.4
Procedure: as §1, §2, §3

Cc1cccc(NC(=O)c2ccc(C(F)(F)F)cc2C(=O)O)n1 [Comparative Example 1]
Kp uu at 0.5 h (in vivo): < 0.1
Kp at 0.5 h (in vivo; 3 mg/kg): < 0.01
concentration at 0.5 h (in vivo; 3 mg/kg): 3090 ng/mL and 5 ng/g
fraction unbound at 4 h, 5 µM (in vitro [1]): 0.068
Brain to plasma ratio % [2]: <1%
fraction unbound at 4 h, 5 µM (in vitro [3]): 0.273
